Measurements as given in patent US5624931A, “Pyrazole derivatives” (Fujisawa Pharmaceutical Co., Ltd., priority 1991, dated 1997).

Assays:
[1] = test system: Interleukin-1 (IL-1) production, human peripheral blood monocyte; experiment: Inhibitory activity on the production of Interleukin-1 (IL-1) in LPS-stimulated purified human peripheral blood monocytes (IL-1 ELISA); type: cell-based; conditions: 48 h, bacterial lipopolysaccharide 1 μg/10^4 cells, 2 days at 37° C., IL-1β ELISA, read-out: IC50 (inhibition of IL-1 production)
Protocol: (a) Inhibitory activity on the production of Interleukin-1 (IL-1)
Purified human peripheral blood monocyte were stimulated with bacterial lipopolysaccharide (1 μg/10^4 cells) in the absence or presence of appropriately diluted test compound for 2 days at 37° C. in a humidified 5% CO2 atmosphere. Culture supernatants were tested for IL-1 ELISA assay.
Test compound was dissolved in absolute DMSO (dimethyl sulfoxide) to achieve 10 mM stock solutions and was subsequently diluted in serum free RPMI1640.
IL-1 levels were quantified by a commercial ELISA kit (Ohtsuka assay, Japan) using a sandwich technique. The sensitivity levels for the detection of IL-1β were 20 pg/ml.
(§1) The inhibitory concentration that caused a 50% inhibition (IC50) was calculated by regression analysis of the dose-response data.

[2] = test system: tumor necrosis factor (TNF) production, human peripheral blood monocyte; experiment: Inhibitory activity on the production of tumor necrosis factor (TNF) in LPS-stimulated purified human peripheral blood monocytes (TNF ELISA); type: cell-based; conditions: 48 h, bacterial lipopolysaccharide 1 μg/10^4 cells, 2 days at 37° C., read-out: IC50 (inhibition of TNF production)
Protocol: (b) Inhibitory activity on the production of tumor necrosis factor (TNF)
Purified human peripheral blood monocyte were stimulated with bacterial lipopolysaccharide (1 μg/10^4 cells) in the absence or presence of appropriately diluted test compound for 2 days at 37° C. in a humidified 5% CO2 atmosphere. Culture supernatants were tested for TNF ELISA assay.
TNF levels were quantified by a commercial ELISA kit (Endogen, Inc. USA) using a sandwich technique. The sensitivity levels for the detection of TNF were 12 pg/ml.
as §1

Fc1ccc(-c2nn3c(c2-c2ccncc2)NCCC3)cc1 [Example 2-(1), 2-(4-fluorophenyl)-3-(pyridin-4-yl)-4,5,6,7-tetrahydropyrazolo[1,5-a]pyrimidine] showed an IC50 [1] of 38 nM and an IC50 [2] of 116 nM.
